Experimental data reported in PubChem BioAssay AID248 (DTP/NCI, 2004).
Where “and” joins values, the source holds several entries; their conditions need not be identical. Identical values can stand only once. Toxic doses and inconclusive results are not listed. Cut-off read from the data, not from the text of the source: active = T/C of 150% or more; inactive = T/C below 125%.

System: L1210 leukemia ip in BDF1 mice, survival T/C
Assay: NCI In Vivo Anticancer Drug Screen. Data for tumor model L1210 Leukemia (intraperitoneal) in B6D2F1 (BDF1) mice
Details: endpoint: mean survival time, higher = longer survival
Procedure, shortened: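 Value reflects the ratio of survival in compound-treated mice to survival in vehicle-treated controls, with both groups carrying the same transplanted tumor.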

[1] = dose: 100.0 mg/kg/injection, schedule: Q01DX009 (ip), vehicle: Klucel (hydroxypropylcellulose) (HPC)
[2] = dose: 200.0 mg/kg/injection, schedule: Q01DX009 (ip), vehicle: Klucel (hydroxypropylcellulose) (HPC)
[3] = dose: 75.0 mg/kg/injection, schedule: Q01DX001 (ip), vehicle: saline

Measured: T/C

CC1=CC2C(C3C=CC2(C)C(=O)C3(C)Cc2ccccc2)C(C)(Cc2ccccc2)C1=O (stereo not given)
inactive: dose: 50.0 mg/kg/injection, schedule: Q01DX009 (ip), vehicle: Klucel (hydroxypropylcellulose) (HPC) 94 % of control | dose: 75.0 mg/kg/injection, schedule: Q01DX001 (ip), vehicle: Klucel (hydroxypropylcellulose) (HPC) 100 % of control | [1] 96 % of control | dose: 150.0 mg/kg/injection, schedule: Q01DX001 (ip), vehicle: Klucel (hydroxypropylcellulose) (HPC) 99 % of control | [2] 93 % of control | dose: 300.0 mg/kg/injection, schedule: Q01DX001 (ip), vehicle: Klucel (hydroxypropylcellulose) (HPC) 96 % of control

FC(F)(F)S.[Ag]
inactive: [3] 95 % of control | dose: 150.0 mg/kg/injection, schedule: Q01DX001 (ip), vehicle: saline 95 % of control

COC(=O)C1C2CC3c4[nH]c5cc(OC)ccc5c4CCN3CC2CC(OC)C1OC (stereo not given)
inactive: dose: 0.78 mg/kg/injection, schedule: Q03HX024 (ip), vehicle: saline 104 % of control | dose: 1.56 mg/kg/injection, schedule: Q03HX024 (ip), vehicle: saline 96 % of control | dose: 2.0 mg/kg/injection, schedule: Q01DX009 (ip), vehicle: saline 93 % of control | dose: 3.12 mg/kg/injection, schedule: Q03HX024 (ip), vehicle: saline 100 % of control | dose: 4.0 mg/kg/injection, schedule: Q01DX009 (ip), vehicle: saline 94 % of control | dose: 6.25 mg/kg/injection, schedule: Q03HX024 (ip), vehicle: saline 110 % of control | dose: 6.25 mg/kg/injection, schedule: Q04DX003 (ip), vehicle: saline 95 % of control | dose: 8.0 mg/kg/injection, schedule: Q01DX009 (ip), vehicle: saline 88 % of control | dose: 12.5 mg/kg/injection, schedule: Q04DX003 (ip), vehicle: saline 97 % of control | dose: 16.0 mg/kg/injection, schedule: Q01DX009 (ip), vehicle: saline 89 % of control | dose: 18.75 mg/kg/injection, schedule: Q01DX001 (ip), vehicle: saline 102 % of control | dose: 25.0 mg/kg/injection, schedule: Q04DX003 (ip), vehicle: saline 102 % of control | dose: 32.0 mg/kg/injection, schedule: Q01DX009 (ip), vehicle: saline 96 % of control | dose: 37.5 mg/kg/injection, schedule: Q01DX001 (ip), vehicle: saline 112 % of control | dose: 50.0 mg/kg/injection, schedule: Q04DX003 (ip), vehicle: saline 105 % of control and 122 % of control | [3] 112 % of control

CN(C)C(=O)OCC[N+](C)(C)CCCCCCCCCC[N+](C)(C)CCOC(=O)N(C)C
inactive: dose: 0.63 mg/kg/injection, schedule: Q01DX009 (ip), vehicle: saline 94 % of control | dose: 1.25 mg/kg/injection, schedule: Q01DX009 (ip), vehicle: saline 98 % of control | dose: 2.5 mg/kg/injection, schedule: Q01DX009 (ip), vehicle: saline 93 % of control | dose: 5.0 mg/kg/injection, schedule: Q04DX003 (ip), vehicle: saline 94 % of control

CCCCC(F)C(Br)C(=O)O (stereo not given)
inactive: dose: 100.0 mg/kg/injection, schedule: Q04DX002 (ip), vehicle: saline with Tween-80 97 % of control | dose: 200.0 mg/kg/injection, schedule: Q04DX002 (ip), vehicle: saline with Tween-80 87 % of control | dose: 400.0 mg/kg/injection, schedule: Q04DX002 (ip), vehicle: saline with Tween-80 93 % of control

Cc1cc2c(cc1C)NC(=O)C(C)CN2 (stereo not given)
inactive: [1] 103 % of control | dose: 100.0 mg/kg/injection, schedule: Q04DX003 (ip), vehicle: Klucel (hydroxypropylcellulose) (HPC) 98 % of control | [2] 108 % of control | dose: 200.0 mg/kg/injection, schedule: Q04DX003 (ip), vehicle: Klucel (hydroxypropylcellulose) (HPC) 103 % of control | dose: 400.0 mg/kg/injection, schedule: Q01DX009 (ip), vehicle: Klucel (hydroxypropylcellulose) (HPC) 95 % of control | dose: 400.0 mg/kg/injection, schedule: Q04DX003 (ip), vehicle: Klucel (hydroxypropylcellulose) (HPC) 101 % of control

COc1ccccc1C(=O)Nc1ccccc1SC
inactive: dose: 100.0 mg/kg/injection, schedule: Q04DX002 (ip), vehicle: Klucel (hydroxypropylcellulose) (HPC) 93 % of control | dose: 200.0 mg/kg/injection, schedule: Q04DX002 (ip), vehicle: Klucel (hydroxypropylcellulose) (HPC) 93 % of control | dose: 400.0 mg/kg/injection, schedule: Q04DX002 (ip), vehicle: Klucel (hydroxypropylcellulose) (HPC) 93 % of control
